Where two headings read alike, the source gives them in different places.
What was measured:
[1] = tested on: BetaD5; assay: MTS cell viability assay; format: cell-based, mouse
Method: (§1) Three human and eleven murine cancer cell lines were used. The human NSCLC cell line A549 (ACC 107) and the human colorectal carcinoma cell line CaCo2 (ACC 169) were obtained from Deutsche Sammlung von Mikroorganismen und Zellkulturen (DSMZ, Braunschweig, Germany). The human hepatocellular carcinoma cell line HepG2 (HB-8065) was obtained from American Type Culture Collection (Manassas, VA, USA). The 11 murine NSCLC cell lines were established as described recently. Cells were grown in monolayer cultures in DMEM containing 10% foetal calf serum, 4 mmol/l L-glutamine and 2% Penicillin/Streptomycin at 37°C in a humidified atmosphere of 95% air and 5% CO2.
(§2) Cell culture viability was monitored by CellTiter96® AQueous One Solution Cell Proliferation Assay (Promega GmbH, Mannheim, Germany). The cells were seeded in triplicates in 96-well microtitre plates and treated with the dual kinase inhibitors or vehicle (0.2% DMSO). After 24 h or 96 h of treatment the MTS tetrazolium reagent was added to the cells and incubated for 1 h. Absorbance at 490 nm was assayed with a Victor3 Wallac 1420 Multilabel counter (PerkinElmer, Waltham, MA, USA).

[2] = tested on: A2C12; assay: MTS cell viability assay; format: cell-based, mouse
Method: as §1, §2

[3] = tested on: GammaA3; assay: MTS cell viability assay; format: cell-based, mouse
Method: as §1, §2

[4] = tested on: GammaD12; assay: MTS cell viability assay; format: cell-based, mouse; settings: MTS
Method: as §1, §2

[5] = tested on: HepG2; assay: Cell cycle analysis by flow cytometry; format: cell-based, human; settings: IC50 concentration, 96 h
Method: (§3) CycleTEST™ PLUS DNA Reagent Kit (Becton Dickinson GmbH, Heidelberg, Germany) for cell cycle analysis was used, according to the instructions of the manufacturer. Briefly, the cells were harvested with trypsin, washed with PBS, and resuspended in CycleTEST Buffer. The cells were centrifuged and resuspended in solution A. After incubation for 10 min at room temperature, solution B was added and incubated. After adding solution C, the samples were incubated at 4°C protected from light. The samples were stored on ice and protected from light until analysis by FACScan flow cytometer (Becton Dickinson GmbH, Heidelberg, Germany).

[6] = tested on: CaCo2; assay: Cell cycle analysis by flow cytometry; format: cell-based, human; settings: IC50 concentration, 96 h
Method: as §3

[7] = tested on: A549; assay: Cell cycle analysis by flow cytometry; format: cell-based, human; settings: IC50 concentration, 96 h
Method: as §3

[8] = tested on: BetaD5; assay: Cell cycle analysis by flow cytometry; format: cell-based, mouse; settings: IC50 concentration, 96 h
Method: as §3

[9] = tested on: A2C12; assay: Cell cycle analysis by flow cytometry; format: cell-based, mouse; settings: IC50 concentration, 96 h
Method: as §3

[10] = tested on: GammaA3; assay: Cell cycle analysis by flow cytometry; format: cell-based, mouse; settings: IC50 concentration; for Cells in G1 phase / Cells in G2 phase / Cells in S phase: 96 h
Method: as §3

[11] = tested on: GammaD12; assay: Cell cycle analysis by flow cytometry; format: cell-based, mouse; settings: IC50 concentration, 96 h
Method: as §3

[12] = tested on: HepG2; assay: MTS cell viability assay; format: cell-based, human
Method: as §1, §2

[13] = tested on: CaCo2; assay: MTS cell viability assay; format: cell-based, human
Method: as §1, §2

[14] = tested on: A549; assay: MTS cell viability assay; format: cell-based, human
Method: as §1, §2

[15] = 24 h, read-out: Calculated IC50 after single treatment for 24 h
[16] = 96 h, read-out: Calculated IC50 after daily treatment for 96 h
[17] = daily treatment 96 h, vs DMSO 0.2%

## CSc1nc(NCCc2ccccc2)c2cnn(CC(Cl)c3ccc(F)cc3)c2n1 (stereo not shown) [Si66]
[1]; [15]
  IC50: 20.7 ± 0.4 µM
[1]; [16]
  IC50: 10.3 ± 0.3 µM
[2]; [15]
  IC50: 23.7 ± 2.2 µM
[2]; [16]
  IC50: 6.9 ± 0.4 µM
[3]; [15]
  IC50: 23.7 ± 2 µM
[3]; [16]
  IC50: 9.1 ± 0.2 µM
[4]; [15]
  IC50: 14.2 ± 1.7 µM
[4]; [16]
  IC50: 4.8 ± 0.4 µM
[5]
  Cells in G1 phase: 61.1%
  Cells in G2 phase: 9.2%
  Cells in S phase: 29.8%
[6]
  Cells in G1 phase: 61%
  Cells in G2 phase: 5.8%
  Cells in S phase: 33.3%
[7]
  Cells in G1 phase: 68.6%
  Cells in G2 phase: 5.3%
  Cells in S phase: 26.1%
[8]
  Cells in G1 phase: 52.7%
  Cells in G2 phase: 25.6%
  Cells in S phase: 21.7%
[9]
  Cells in G1 phase: 65.3%
  Cells in G2 phase: 11.8%
  Cells in S phase: 22.9%
[10]
  Cells in G1 phase: 58.4%
  Cells in G2 phase: 18.5%
  Cells in S phase: 23.1%
[11]
  Cells in G1 phase: 32.1%
  Cells in G2 phase: 6.7%
  Cells in S phase: 61.5%
[12]; [15]
  IC50: 44.7 ± 5.9 µM
[12]; [16]
  IC50: 8.2 ± 0.6 µM
[13]; [15]
  IC50: 44.7 ± 5.9 µM
[13]; [16]
  IC50: 6 ± 0.1 µM
[14]; [15]
  IC50: 21.6 ± 2.6 µM
[14]; [16]
  IC50: 7.1 ± 0.1 µM

## CSc1nc(NCc2ccccc2)c2cnn(CC(Cl)c3ccc(Cl)cc3)c2n1 (stereo not shown) [Si70]
[1]; [15]
  IC50: 31 ± 5.1 µM
[1]; [16]
  IC50: 11 ± 0.3 µM
[2]; [15]
  IC50: 68.5 ± 16.8 µM
[2]; [16]
  IC50: 9.2 ± 0.3 µM
[3]; [15]
  IC50: 40.7 ± 6.2 µM
[3]; [16]
  IC50: 13.5 ± 1.1 µM
[4]; [15]
  IC50: 21.6 ± 1.6 µM
[4]; [16]
  IC50: 7.9 ± 3.4 µM
[6]
  Cells in G1 phase: 65.9%
  Cells in G2 phase: 6.8%
  Cells in S phase: 27.3%
[7]
  Cells in G1 phase: 77.3%
  Cells in G2 phase: 4.1%
  Cells in S phase: 18.6%
[8]
  Cells in G1 phase: 56.6%
  Cells in G2 phase: 25.7%
  Cells in S phase: 17.7%
[9]
  Cells in G1 phase: 63.3%
  Cells in G2 phase: 10.1%
  Cells in S phase: 26.6%
[10]
  Cells in G1 phase: 89%
  Cells in G2 phase: 8.2%
  Cells in S phase: 2.8%
[10]; [17]
  Decrease in the S-phase compared to the vehicle treatment: up to 91%
  Increase in G0/G1 compared to the vehicle treatment: up to 92%
[11]
  Cells in G1 phase: 43.7%
  Cells in G2 phase: 7.7%
  Cells in S phase: 48.7%
[12]; [15]
  IC50: 82.1 ± 5.3 µM
[12]; [16]
  IC50: > 100 µM
[13]; [15]
  IC50: 82.1 ± 5.3 µM
[13]; [16]
  IC50: 7.6 ± 0.3 µM
[14]; [15]
  IC50: 96 ± 35.1 µM
[14]; [16]
  IC50: 10.2 ± 0.5 µM

## CSc1nc(NCc2ccccc2)c2cnn(CC(Cl)c3ccc(F)cc3)c2n1 (stereo not shown) [Si65]
[1]; [15]
  IC50: 22.6 ± 1.9 µM
[1]; [16]
  IC50: 10.6 ± 0.1 µM
[2]; [15]
  IC50: 25.9 ± 4.3 µM
[2]; [16]
  IC50: 8.6 ± 1.3 µM
[3]; [15]
  IC50: 31.9 ± 1.6 µM
[3]; [16]
  IC50: 9.9 ± 1.4 µM
[4]; [15]
  IC50: 21 ± 1 µM
[4]; [16]
  IC50: 7.1 ± 0.6 µM
[5]
  Cells in G1 phase: 62.7%
  Cells in G2 phase: 8.5%
  Cells in S phase: 28.1%
[7]
  Cells in G1 phase: 67.2%
  Cells in G2 phase: 6.3%
  Cells in S phase: 26.6%
[8]
  Cells in G1 phase: 58.4%
  Cells in G2 phase: 24.7%
  Cells in S phase: 16.9%
[9]
  Cells in G1 phase: 73.4%
  Cells in G2 phase: 10.4%
  Cells in S phase: 16.2%
[10]
  Cells in G1 phase: 68%
  Cells in G2 phase: 17.3%
  Cells in S phase: 14.6%
[11]
  Cells in G1 phase: 33%
  Cells in G2 phase: 8.7%
  Cells in S phase: 58.4%
[12]; [15]
  IC50: 40.3 ± 0.9 µM
[12]; [16]
  IC50: 9.1 ± 1.7 µM
[13]; [15]
  IC50: 40.3 ± 0.9 µM
[13]; [16]
  IC50: 5.7 ± 0.4 µM
[14]; [15]
  IC50: 22.7 ± 0.6 µM
[14]; [16]
  IC50: 8.2 ± 0.5 µM

## CCN(CC)c1nc(SC)nc2c1cnn2CC(Cl)c1ccccc1 (stereo not shown) [Si27]
[1]; [15]
  IC50: > 100 µM
[1]; [16]
  IC50: > 20 µM
[2]; [15]
  IC50: > 100 µM
[2]; [16]
  IC50: > 20 µM
[3]; [15]
  IC50: > 100 µM
[3]; [16]
  IC50: > 20 µM
[4]; [15]
  IC50: > 100 µM
[4]; [16]
  IC50: > 20 µM
[12]; [15]
  IC50: > 100 µM
[12]; [16]
  IC50: 16.2 ± 6.3 µM
[13]; [15]
  IC50: > 100 µM
[13]; [16]
  IC50: > 20 µM
[14]; [15]
  IC50: > 100 µM
[14]; [16]
  IC50: > 20 µM

From PMC2994747, “Molecular Characterization of c-Abl/c-Src Kinase Inhibitors Targeted against Murine Tumour Progenitor Cells that Express Stem Cell Markers” (PLoS ONE, 2010)
